Laboratory results: US8013153B2, “Substituted pyrimidine kinase inhibitors” (Janssen Pharmaceutica, N.V., priority 2006, dated 2011)
Like-named read-outs stand apart in the source and are kept apart here.

Experiments:
[1] = biological target: T1, CDK1:Cyclin-B (Homo sapiens, UniProt P06493); experiment: CDK1 Screening Assay; format: biochemical
T1 construct: purchased New England Biolabs, Beverly, Mass; 6020; host or cells: insect cells
Protocol: (§1) A kinase reaction mixture was prepared containing 50 mM Tris-HCl pH=8, 10 mM MgCl2, 0.1 mM Na3PO4, 1 mM DTT, 10 μM ATP, 0.025 μM biotinylated histone-H1 peptide substrate and 0.2 μCuries per well ^33P-γ-ATP (2000-3000 Ci/mmol). 70 μL of the kinase reaction mixture was dispensed into the well of a streptavidin coated FlashPlate™ (Cat. # SMP103, NEN, Boston, Mass.). Then 1 μL of test compound stock in 100% DMSO was added to the wells resulting in a final concentration of 1% DMSO in the reaction with a 100 μL final reaction volume.
(§2) The CDK1:Cyclin-B protein was diluted in 50 mM Tris-HCl pH=8.0, 0.1% BSA at a concentration of 1 ng per μL and 30 μL (30 ng enzyme per test well) was added to each well to initiate the reaction. The reaction was incubated for one hour at 30° C. At the end of the 1 hour incubation, the reaction was terminated by aspirating the mixture from the plate and washing the wells twice with PBS containing 100 mM EDTA. The histone-H1 biotinylated peptide substrate became immobilized on the Flashplate™ and the incorporation of ^33P-γ-ATP was measured by reading the plate on a scintillation counter. Inhibition of the enzymatic activity of CDK1 was measured by observing a reduced amount of ^33P-γ-ATP incorporated into the immobilized peptide.
The CDK1 used was isolated from insect cells expressing both the human CDK1 catalytic subunit and its positive regulatory subunit cyclin B (New England Biolabs, Beverly, Mass., Cat. #6020).

[2] = biological target: T2, rat VEGF-R2 kinase domain (Rattus norvegicus, UniProt O08775); experiment: VEGF-R2 Screening Assay; format: biochemical
T2 construct: amino acids 786-1343 of the rat VEGF-R2 kinase domain; polyhistidine (N)
T2 sequence (O08775 786-1343): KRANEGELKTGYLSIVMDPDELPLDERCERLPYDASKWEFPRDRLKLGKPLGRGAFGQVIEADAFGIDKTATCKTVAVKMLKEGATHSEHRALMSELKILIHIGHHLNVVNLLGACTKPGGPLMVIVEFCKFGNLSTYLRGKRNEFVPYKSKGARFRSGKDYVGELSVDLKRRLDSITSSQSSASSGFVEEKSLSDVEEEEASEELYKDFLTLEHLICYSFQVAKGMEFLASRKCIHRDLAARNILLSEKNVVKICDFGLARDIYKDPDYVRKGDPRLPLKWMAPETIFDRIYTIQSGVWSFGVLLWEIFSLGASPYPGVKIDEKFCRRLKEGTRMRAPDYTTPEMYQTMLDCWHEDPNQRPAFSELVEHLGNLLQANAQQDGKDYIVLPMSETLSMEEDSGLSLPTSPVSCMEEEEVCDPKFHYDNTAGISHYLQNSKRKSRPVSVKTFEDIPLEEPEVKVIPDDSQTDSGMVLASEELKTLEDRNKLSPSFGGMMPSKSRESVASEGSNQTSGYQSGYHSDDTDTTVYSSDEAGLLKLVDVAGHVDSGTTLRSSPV

[3] = biological target: T3, murine Aurora-A (Mus musculus, UniProt P97477); experiment: Aurora-A Screening Assay; format: biochemical
T3 construct: replaced with the full length protein encoding the murine Aurora-A; made in house; host or cells: sf9 insect cells
T3 sequence (P97477 1-395): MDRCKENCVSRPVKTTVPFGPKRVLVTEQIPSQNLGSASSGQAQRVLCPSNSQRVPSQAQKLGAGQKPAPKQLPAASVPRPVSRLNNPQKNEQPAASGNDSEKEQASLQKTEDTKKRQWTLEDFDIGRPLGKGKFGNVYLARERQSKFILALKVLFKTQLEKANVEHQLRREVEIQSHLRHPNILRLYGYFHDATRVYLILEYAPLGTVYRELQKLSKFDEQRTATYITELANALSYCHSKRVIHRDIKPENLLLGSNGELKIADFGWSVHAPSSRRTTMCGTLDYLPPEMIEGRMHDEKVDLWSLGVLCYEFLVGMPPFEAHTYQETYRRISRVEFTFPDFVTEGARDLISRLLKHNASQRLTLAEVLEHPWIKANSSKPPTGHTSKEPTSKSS
Protocol: as §1, §2
The Aurora-A kinase assay was carried out using the CDK kinase assay procedure except that the enzyme was replaced with the full length protein encoding the murine Aurora-A (Accession #GB BC014711) expressed and purified from sf9 insect cells.

[4] = biological target: T4, HER2 cytoplasmic domain (Homo sapiens, UniProt P04626); experiment: HER2 Kinase Screening Assay; format: biochemical; details: > means no observed 50% inhibition at the indicated test concentration; ~ means approximately 50% inhibition at that concentration
T4 construct: polyhistidine (N)
T4 sequence (P04626 676-1255 limits assumed): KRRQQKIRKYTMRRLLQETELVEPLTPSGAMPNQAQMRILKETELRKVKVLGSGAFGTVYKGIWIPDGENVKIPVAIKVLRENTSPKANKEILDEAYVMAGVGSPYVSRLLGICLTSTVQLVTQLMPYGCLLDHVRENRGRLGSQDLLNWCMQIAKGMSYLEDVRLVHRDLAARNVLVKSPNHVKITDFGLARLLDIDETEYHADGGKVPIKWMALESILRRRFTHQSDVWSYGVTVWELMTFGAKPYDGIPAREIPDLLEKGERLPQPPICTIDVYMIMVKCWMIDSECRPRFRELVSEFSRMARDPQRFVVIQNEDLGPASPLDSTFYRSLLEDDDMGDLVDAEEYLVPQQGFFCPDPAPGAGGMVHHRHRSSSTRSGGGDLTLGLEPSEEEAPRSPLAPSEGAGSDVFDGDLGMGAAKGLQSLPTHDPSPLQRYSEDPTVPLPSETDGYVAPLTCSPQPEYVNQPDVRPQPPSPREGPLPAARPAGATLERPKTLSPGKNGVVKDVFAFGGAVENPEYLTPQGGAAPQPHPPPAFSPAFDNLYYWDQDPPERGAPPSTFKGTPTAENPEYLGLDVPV
Protocol: as §1, §2
The HER2 kinase assay was carried out using the CDK kinase assay procedure except that the enzyme was replaced with a HER2 construct containing a polyhistidine tag at the N-terminus followed by 24 additional amino acids and the HER2 cytoplasmic domain beginning at amino acid 676 (Accession #M11730) to the end.

[5] = system: HeLa cervical adenocarcinoma; experiment: Inhibition of in vitro cell proliferation (HeLa); format: cell-based, human; details: Homo sapiens, 14C-thymidine incorporation;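 note: cells exposed to compound for 24 h, then labelled 24 h with methyl 14C-thymidine, with uptake into DNA counted by scintillation against DMSO-only control wells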
[6] = system: HCT-116 colon carcinoma; experiment: Inhibition of in vitro cell proliferation (HCT116); format: cell-based, human; details: Homo sapiens, HCT-116, 14C-thymidine incorporation;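 note: cells exposed to compound for 24 h, then 14C-thymidine added for a further 24 h and its uptake into DNA counted by scintillation, DMSO-only wells as control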
[7] = system: A375 malignant melanoma; experiment: Inhibition of in vitro cell proliferation (A375); format: cell-based, human; details: Homo sapiens, A-375, 14C-thymidine incorporation;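 note: cells plated for 24 h, given compound for 24 h, then labelled with 14C-thymidine for another 24 h, with DMSO-only wells as control and counts read by scintillation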
[8] = > means no observed 50% inhibition at the indicated test concentration, ~ means approximately 50% inhibition at that concentration, read-out: IC50 VEGF-R2

T1 sequence (P06493 whole entry): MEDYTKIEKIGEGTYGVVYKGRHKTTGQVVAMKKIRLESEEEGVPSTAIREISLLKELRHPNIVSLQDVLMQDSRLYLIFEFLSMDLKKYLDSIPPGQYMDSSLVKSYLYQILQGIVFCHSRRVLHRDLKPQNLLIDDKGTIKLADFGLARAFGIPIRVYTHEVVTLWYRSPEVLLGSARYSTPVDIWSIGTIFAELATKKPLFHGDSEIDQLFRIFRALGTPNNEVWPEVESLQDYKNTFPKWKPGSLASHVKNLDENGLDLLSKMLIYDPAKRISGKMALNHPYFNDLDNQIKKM
T1 sequence (P14635 whole entry partner): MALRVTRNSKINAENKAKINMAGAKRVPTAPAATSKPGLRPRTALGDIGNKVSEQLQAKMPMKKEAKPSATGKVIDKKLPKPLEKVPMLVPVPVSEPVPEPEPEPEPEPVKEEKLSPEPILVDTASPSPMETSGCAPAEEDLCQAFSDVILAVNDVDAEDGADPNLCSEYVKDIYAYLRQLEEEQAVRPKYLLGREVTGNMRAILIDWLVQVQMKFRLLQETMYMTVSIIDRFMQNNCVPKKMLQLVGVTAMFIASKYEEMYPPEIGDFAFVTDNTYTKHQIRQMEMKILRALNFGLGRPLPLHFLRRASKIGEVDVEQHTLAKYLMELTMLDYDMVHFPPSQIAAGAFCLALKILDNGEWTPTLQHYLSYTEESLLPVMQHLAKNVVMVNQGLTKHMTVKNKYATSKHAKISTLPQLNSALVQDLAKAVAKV

Structure (SMILES)	IC50 [1] [µM]	IC50 [2, 8] [µM]	IC50 [3] [µM]	IC50 [4] [µM]	IC50 [5] [µM]	IC50 [6] [µM]	IC50 [7] [µM]	IC50 ([2]; IC50 VEGF-R2) [µM]
CON=Cc1c(N)ncnc1Oc1ccc(NC(=O)Nc2ccc(F)cc2F)c(Cl)c1 [Cpd 61, 1-{4-[6-amino-5-(methoxyimino-methyl)-pyrimidin-4-yloxy]-2-chloro-phenyl}-3-(2,4-difluoro-phenyl)-urea]	> 100	0.003	> 100	> 100	> 100	> 10	> 100	–
Cc1cc2c(F)c(Oc3ncnc(N)c3C=NOCCCCO)ccc2[nH]1 [Cpd 38, 4-amino-6-(4-fluoro-2-methyl-1H-indol-5-yloxy)-pyrimidine-5-carbaldehyde O-(4-hydroxy-butyl)-oxime]	> 100	0.0577	> 100	0.868	1.83	2.34	0.618	–
CON=Cc1c(N)ncnc1Oc1ccc(OC(=O)Nc2cccc(Cl)c2)cc1 [Cpd 105, (3-chloro-phenyl)-carbamic acid 4-[6-amino-5-(methoxyimino-methyl)-pyrimidin-4-yloxy]-phenyl ester]	> 100	> 100	> 100	> 100	–	–	–	–
Cc1cc2c(F)c(Oc3ncnc(N)c3C=NOCCCN(C)C)ccc2[nH]1 [Cpd 17, 4-amino-6-(4-fluoro-2-methyl-1H-indol-5-yloxy)-pyrimidine-5-carbaldehyde O-(3-dimethylamino-propyl)-oxime]	> 100	–	33.8	~10	–	–	–	–
CNC(=O)n1c(C)cc2c(F)c(Oc3ncnc(N)c3C=NOC)ccc21 [Cpd 43, 5-[6-amino-5-(methoxyimino-methyl)-pyrimidin-4-yloxy]-4-fluoro-2-methyl-indole-1-carboxylic acid methylamide]	> 100	~1	> 100	> 10	–	–	–	–
CNC(=O)Cc1ccc(Oc2ncnc(N)c2C=NOC)cc1 [Cpd 96, 2-{4-[6-amino-5-(methoxyimino-methyl)-pyrimidin-4-yloxy]-phenyl}-N-methyl-acetamide]	> 100	–	> 10	> 100	–	–	–	19.7
CNC(=O)c1ccc(Oc2ncnc(N)c2C=NOC)cc1 [Cpd 98, 4-[6-amino-5-(methoxyimino-methyl)-pyrimidin-4-yloxy]-N-methyl-benzamide]	> 100	–	> 100	> 100	–	–	–	–
CON=Cc1c(N)ncnc1OCc1ccc2ccccc2c1 [Cpd 115, 4-amino-6-(2-naphthalenylmethoxy)-5-pyrimidinecarboxaldehyde O-methyloxime]	–	> 10	–	–	–	–	–	–
COCCCON=Cc1c(N)ncnc1Oc1ccc2[nH]c(C)cc2c1F [Cpd 33, 4-amino-6-(4-fluoro-2-methyl-1H-indol-5-yloxy)-pyrimidine-5-carbaldehyde O-(3-methoxy-propyl)-oxime]	> 100	–	> 10	3.99	0.346	0.438	0.3	–
CCNC(=O)Oc1ccc(Oc2ncnc(N)c2C=NOC)cc1 [Cpd 102, ethyl-carbamic acid 4-[6-amino-5-(methoxyimino-methyl)-pyrimidin-4-yloxy]-phenyl ester]	> 100	–	> 10	> 100	–	–	–	–
CON=Cc1c(N)ncnc1Oc1cc(OC)cc(OC)c1 [Cpd 106, 4-amino-6-(3,5-dimethoxyphenoxy)-5-pyrimidinecarboxaldehyde O-methyloxime]	> 100	> 10	> 100	> 10	–	–	–	–
CO/N=C/c1c(N)ncnc1Oc1ccc2[nH]c(C)cc2c1 [Cpd 2, 4-amino-6-(2-methyl-1H-indol-5-yloxy)-pyrimidine-5-carbaldehyde O-methyl-oxime]	> 100	–	~100	> 1	0.389	0.386	0.356	–
CO/N=C/c1c(N)ncnc1Oc1ccc2[nH]cc(CCNC(C)=O)c2c1 [Cpd 113, N-[2-{5-[{6-amino-5-[(E)-(methoxyimino)methyl]-4-pyrimidinyl}oxy]-1H-indol-3-yl}ethyl]-acetamide]	> 100	> 100	> 100	> 100	–	–	–	–

Further lines, with some results ahead:

IC50 [1] [µM]	IC50 [2, 8] [µM]	IC50 [3] [µM]	IC50 [4] [µM]	IC50 [5] [µM]	IC50 [6] [µM]	IC50 [7] [µM]	Structure (SMILES)	IC50 ([2]; IC50 VEGF-R2) [µM]
> 100	0.037	> 100	1.55	0.715	2.78	0.429	Cc1cc2c(F)c(Oc3ncnc(N)c3C=NOCCCN3CCCCC3)ccc2[nH]1 [Cpd 20, 4-amino-6-(4-fluoro-2-methyl-1H-indol-5-yloxy)-pyrimidine-5-carbaldehyde O-(3-piperidin-1-yl-propyl)-oxime]	–
> 100	–	> 100	> 100	0.042	0.04	0.021	C=CCON=Cc1c(N)ncnc1Oc1ccc2[nH]c(C)cc2c1F [Cpd 31, 4-amino-6-(4-fluoro-2-methyl-1H-indol-5-yloxy)-pyrimidine-5-carbaldehyde O-allyl-oxime]	–
> 100	> 100	> 100	> 100	–	–	–	CCOC(=O)c1c(C)[nH]c2ccc(Oc3ncnc(N)c3/C=N/OC)cc12 [Cpd 107, 5-[{6-amino-5-[(E)-(methoxyimino)methyl]-4-pyrimidinyl}oxy]-2-methyl-1H-indole-3-carboxylic acid ethyl ester]	–
–	–	–	> 10	–	–	–	CON=Cc1c(N)ncnc1OCc1cccc(F)c1 [Cpd 112, 4-amino-6-[(3-fluorophenyl)methoxy]-5-pyrimidinecarboxaldehyde O-methyloxime]	–
> 100	0.093	> 100	> 100	–	–	–	CCNC(=O)Nc1ccc(Oc2ncnc(N)c2C=NOCCN2CCOCC2)cc1Cl [Cpd 103, 1-(4-{6-amino-5-[(2-morpholin-4-yl-ethoxyimino)-methyl]-pyrimidin-4-yloxy}-2-chloro-phenyl)-3-ethyl-urea]	–
> 100	> 100	> 100	> 1	–	–	–	CON=Cc1c(N)ncnc1Oc1ccc(F)c(Cl)c1 [Cpd 109, 4-amino-6-(3-chloro-4-fluorophenoxy)-5-pyrimidinecarboxaldehyde O-methyloxime]	–
> 100	0.041	> 100	> 100	–	–	–	CCNC(=O)Nc1ccc(Oc2ncnc(N)c2C=NOCCOC)cc1Cl [Cpd 104, 1-(4-{6-amino-5-[(2-methoxy-ethoxyimino)-methyl]-pyrimidin-4-yloxy}-2-chloro-phenyl)-3-ethyl-urea]	–
> 100	–	> 100	2.8	–	–	–	CON=Cc1c(N)ncnc1Oc1ccc(CC(=O)Nc2cccc(F)c2)cc1 [Cpd 100, 2-{4-[6-amino-5-(methoxyimino-methyl)-pyrimidin-4-yloxy]-phenyl}-N-(3-fluoro-phenyl)-acetamide]	–
> 100	3.96	> 10	> 10	–	–	–	CON=Cc1c(N)ncnc1Oc1ccc2c(c1)OCO2 [Cpd 108, 4-amino-6-(1,3-benzodioxol-5-yloxy)-5-pyrimidinecarboxaldehyde O-methyloxime]	–
> 100	–	> 10	> 100	–	–	–	CCNC(=O)Cc1ccc(Oc2ncnc(N)c2C=NOC)cc1 [Cpd 101, 2-{4-[6-amino-5-(methoxyimino-methyl)-pyrimidin-4-yloxy]-phenyl}-N-ethyl-acetamide]	–
